Measured values: EP4768484A1, “HETEROCYCLIC FUSED RING COMPOUND, AND COMPOSITION AND USE THEREOF” (Shenzhen TargetRx, Inc., priority 2023, dated 2025)

How the values were obtained:
Type in all cases: cell-based
K562 cells = experiment: Cell growth inhibitory activity assay (CellTiter-Glo), K562 cells; conditions: Homo sapiens, 72 h, CTG cell viability
Procedure: (§1) In this assay, the Celltiter-Glo (CTG) kit provided by Promega was used, and it is a homogeneous cell viability assay method. The cell viability of cultured cells was measured by quantifying ATP. K562 cells were purchased from Nanjing Kebai, product number CBP60529; Ba/F3 parental cells were purchased from RIKEN BRC, product number RCB0805; other cells containing BCR-ABL1 WT, BCR-ABL1 T315I, BCR-ABL1 T315M, BCR-ABL1 Y253H/E255K, BCR-ABL1 E255V/T3151, BCR-ABL1 A424T, BCR-ABL1 A337V, BCR-ABL1 P465S, BCR-ABL1 V468F, and BCR-ABL1 I502L were all monoclonal engineered cell lines obtained by transducting Ba/F3 parental cells with the lentivirus plasmids containing WT or corresponding mutated BCR-ABL1.
(§2) The steps of cell viability assay are as follows: • a) Cells in logarithmic growth phase were collected. Cell suspension was prepared and the cells were counted. Concentration of the cells was calculated. • b) The cell suspension was diluted to the required concentration and then added to the middle wells of a 96-well plate, and PBS was added to the edge wells. The wells with no cells and only culture medium were used as blank controls. • c) In addition to the cell plate used for compound analysis, another 96-well plate was prepared as a T0 plate, and 3-6 blank wells and 3-6 cell wells were added. The next day, CTG was used to test the cell viability as the T0 viability value of the cells. • d) The cell plate was incubated at 37 °C in a 5% CO2 incubator overnight. • e) The next day, each concentration of a compound subjected to a gradient dilution was added, and the cell plate was incubated at 37 °C in a 5% CO2 incubator for 72 h. The wells with no compound and only 0.5% DMSO were used as positive controls for cell growth. • f) CTG reagent (CellTiter-Glo kit) was added according to the manufacturer's instructions to test the cell viability value. • g) The plate was read using Biotek cytation3.0 microplate reader and the data were exported. • h) IC50 was calculated using GraphPad Prism 7.0 software.
(§3) The IC50 (half-maximal inhibitory concentration) of the compound was obtained using the following nonlinear fitting formula: Y = Bottom + (Top−Bottom)/(1+10^(∧)((LogIC50−X)*HillSlope)) [formula] • X: Log value of the compound concentration • Y: Inhibition rate (% inhibition) • Top: Maximum response • Bottom: Baseline response • HillSlope: Slope of the curve
(§4) The formula for calculating cell inhibition rate (inhibition rate %) was: [formula]

Ba/F3 BCR-ABL1 WT = target: T1, Ba/F3 BCR-ABL1 WT (Homo sapiens, UniProt P00519+P11274); experiment: Cell growth inhibitory activity assay (CellTiter-Glo), Ba/F3 BCR-ABL1 WT cells; conditions: 72 h, CTG cell viability
T1 construct: BCR (N-terminal fusion partner of the oncoprotein); expressed in transfected cells; host or cells: Ba/F3 (lentiviral transduction, monoclonal line)
Procedure: as §1, §2, §3, §4

Ba/F3 BCR-ABL1 T315I = target: T2, Ba/F3 BCR-ABL1 T315I (Homo sapiens, UniProt P00519+P11274, T315I); experiment: Cell growth inhibitory activity assay (CellTiter-Glo), Ba/F3 BCR-ABL1 T315I cells; conditions: 72 h, CTG cell viability
T2 construct: BCR (N-terminal fusion partner of the oncoprotein); expressed in transfected cells; host or cells: Ba/F3 (lentiviral transduction, monoclonal line)
Procedure: as §1, §2, §3, §4

Ba/F3 parental cells = experiment: Cell growth inhibitory activity assay (CellTiter-Glo), Ba/F3 parental cells; conditions: Mus musculus, BaF3, 72 h, CTG cell viability, read-out: IC50 Ba/F3 BCR-ABL1 Parental
Procedure: as §1, §2, §3, §4

SMILES	IC50 (K562 cells)	IC50 (Ba/F3 BCR-ABL1 WT)	IC50 (Ba/F3 BCR-ABL1 T315I)	IC50 (Ba/F3 parental cells)
COc1ccc(-c2ccnc(-n3cc4c(n3)-c3cc(-c5cc(C(=O)Nc6ccc(OC(F)(F)Cl)cc6)cc6nc7n(c56)[C@H](C)COC7)cnc3C4)n2)cc1F [T-91-B, (R)-N-(4-(chlorodifluoromethoxy)phenyl)-6-(2-(4-(3-fluoro-4-methoxyphenyl)pyrimidin-2-yl)-2,4-dihydropyrazolo[3',4':3,4]cyclopenta[1,2-b]pyridin-7-yl)-4-methyl-3,4-dihydro-1H-benzo[4,5]imidazo[2,1-c][1,4]oxazine-8-carboxamide]	≤ 5 nM	≤ 5 nM	≤ 5 nM	> 1000 nM
O=C(Nc1ccc(OC(F)(F)Cl)cc1)c1cnc(N2CC[C@@H](F)C2)c(-c2cnc3c(c2)-c2nn(-c4ncc(C(F)(F)F)cn4)cc2C3)c1 [T-15, (R)-N-(4-(chlorodifluoromethoxy)phenyl)-6-(3-fluoropyrrolidin-1-yl)-5-(2-(5-(trifluoromethyl)pyrimidin-2-yl)-2,4-dihydropyrazolo[3',4':3,4]cyclopenta[1,2-b]pyridin-7-yl)nicotinamide]	≤ 5 nM	≤ 5 nM	5 to 50 nM	> 1000 nM
C[C@@H]1COCc2nc3cc(C(=O)Nc4ccc(OC(F)(F)Cl)cc4)cc(-c4cnc5c(c4)-c4nn(-c6nccc(-c7ccn(C)n7)n6)cc4C5)c3n21 [T-90, (R)-N-(4-(chlorodifluoromethoxy)phenyl)-4-methyl-6-(2-(4-(1-methyl-1H-oyrazol-3-yl)pyrimidin-2-yl)-2,4-dihydropyrazolo[3',4':3,4]cyclopenta[1,2-b]pyridin-7-yl)-3,4-dihydro-1H-benzo[4,5]imidazo[2,1-c][1,4]oxazine-8-carboxamide]	≤ 5 nM	≤ 5 nM	≤ 5 nM	> 1000 nM
Cc1cnc(-n2cc3c(n2)-c2cc(-c4cc(C(=O)Nc5ccc(OC(F)(F)Cl)cc5)cc5nc6n(c45)[C@H](C)COC6)cnc2C3)nc1 [T-74, (R)-N-(4-(chlorodifluoromethoxy)phenyl)-4-methyl-6-(2-(5-methylpyrimidin-2-yl)-2,4-dihydropyrazolo[3',4':3,4]cyclopenta[1,2-b]pyridin-7-yl)-3,4-dihydro-1H-benzo[4,5]imidazo[2,1-c][1,4]oxazine-8-carboxamide]	≤ 5 nM	≤ 5 nM	≤ 5 nM	> 1000 nM
O=C(Nc1ccc(OC(F)(F)Cl)cc1)c1cnc(N2CC[C@@H](F)C2)c(-c2cnc3c(c2)-c2nn(-c4ncc5ccsc5n4)cc2C3)c1 [T-44, (R)-N-(4-(chlorodifluoromethoxy)phenyl)-6-(3-fluoropyrrolidin-1-yl)-5-(2-(thieno[2,3-d]pyrimidin-2-yl)-2,4-dihydropyrazolo[3',4':3,4]cyclopenta[1,2-b]pyridin-7-yl)nicotinamide]	≤ 5 nM	≤ 5 nM	≤ 5 nM	> 1000 nM
O=C(Nc1ccc(OC(F)(F)Cl)cc1)c1cnc(N2CC[C@H](F)C2)c(-c2cnc3c(c2)-c2nn(-c4ncc(F)cn4)cc2C3)c1 [T-13, (S)-N-(4-(chlorodifluoromethoxy)phenyl)-5-(2-(5-fluoropyrimidin-2-yl)-2,4-dihydropyrazolo[3',4':3,4]cyclopenta[1,2-b]pyridin-7-yl)-6-(3-fluoropyrrolidin-1-yl)nicotinamide]	≤ 5 nM	≤ 5 nM	≤ 5 nM	> 1000 nM
C[C@@H]1COCc2nc3cc(C(=O)Nc4ccc(OC(F)(F)Cl)cc4)cc(-c4cnc5c(c4)-c4nn(-c6nccc(-c7cncnc7)n6)cc4C5)c3n21 [T-100, (R)-6-(2-([4,5'-bipyrimidin]-2-yl)-2,4-dihydropyrazolo[3',4':3,4]cyclopenta[1,2-b]pyridin-7-yl)-N-(4-(chlorodifluoromethoxy)phenyl)-4-methyl-3,4-dihydro-1H-benzo[4,5]imidazo[2,1-c][1,4]oxazine-8-carboxamide]	≤ 5 nM	≤ 5 nM	≤ 5 nM	> 1000 nM
O=C(Nc1ccc(OC(F)(F)Cl)cc1)c1cnc(N2CC[C@@H](F)C2)c(-c2cnc3c(c2)-c2nn(-c4nccc(-c5cncnc5)n4)cc2C3)c1 [T-22]	≤ 5 nM	≤ 5 nM	≤ 5 nM	> 1000 nM
C[C@@H]1COCc2nc3cc(C(=O)Nc4ccc(OC(F)(F)Cl)cc4)cc(-c4cnc5c(c4)-c4nn(-c6nccc(-c7ccccc7F)n6)cc4C5)c3n21 [T-92, (R)-N-(4-(chlorodifluoromethoxy)phenyl)-6-(2-(4-(2-fluorophenyl)pyrimidin-2-yl)-2,4-dihydropyrazolo[3',4':3,4]cyclopenta[1,2-b]pyridin-7-yl)-4-methyl-3,4-dihydro-1H-benzo[4,5]imidazo[2,1-c][1,4]oxazine-8-carboxamide]	≤ 5 nM	≤ 5 nM	≤ 5 nM	> 1000 nM

Second part, led by results:

IC50 (K562 cells)	SMILES	IC50 (Ba/F3 BCR-ABL1 WT)	IC50 (Ba/F3 BCR-ABL1 T315I)	IC50 (Ba/F3 parental cells)
≤ 5 nM	Nc1nc(N2CC[C@@H](F)C2)c(-c2cnc3c(c2)-c2nn(-c4ncc(F)cn4)cc2C3)cc1C(=O)Nc1ccc(OC(F)(F)Cl)cc1 [T-132, (R)-2-amino-N-(4-(chlorodifluoromethoxy)phenyl)-5-(2-(5-fluoropyrimidin-2-yl)-2,4-dihydropyrazolo[3',4':3,4]cyclopenta[1,2-b]pyridin-7-yl)-6-(3-fluoropyrrolidin-1-yl)nicotinamide]	≤ 5 nM	≤ 5 nM	50 to 1000 nM
≤ 5 nM	C[C@@H]1COCc2nc3cc(C(=O)Nc4ccc(OC(F)(F)Cl)cc4)cc(-c4cnc5c(c4)-c4nn(-c6nccn6C)cc4C5)c3n21 [T-102, (R)-N-(4-(chlorodifluoromethoxy)phenyl)-4-methyl-6-(2-(1-methyl-1H-imidazol-2-yl)-2,4-dihydropyrazolo[3',4':3,4]cyclopenta[1,2-b]pyridin-7-yl)-3,4-dihydro-1H-benzo[4,5]imidazo[2,1-c][1,4]oxazine-8-carboxamide]	≤ 5 nM	≤ 5 nM	> 1000 nM
≤ 5 nM	CC(C)c1cnc(-n2cc3c(n2)-c2cc(-c4cc(C(=O)Nc5ccc(OC(F)(F)Cl)cc5)cc5nc6n(c45)[C@H](C)COC6)cnc2C3)nc1 [T-101, (R)-N-(4-(chlorodifluoromethoxy)phenyl)-6-(2-(5-isopropyloyrimidin-2-yl)-2,4-dihydropyrazolo[3',4':3,4]cyclooenta[1,2-b]pyridin-7-yl)-4-methyl-3,4-dihydro-1H-benzo[4,5]imidazo[2,1-c][1,4]oxazine-8-carboxamide]	≤ 5 nM	≤ 5 nM	> 1000 nM
≤ 5 nM	N#Cc1ccnc(-n2cc3c(n2)-c2cc(-c4cc(C(=O)Nc5ccc(OC(F)(F)Cl)cc5)cnc4N4CC[C@@H](F)C4)cnc2C3)n1 [T-129, (R)-N-(4-(chlorodifluoromethoxy)phenyl)-5-(2-(4-cyanopyrimidin-2-yl)-2,4-dihydropyrazolo[3',4':3,4]cyclopenta[1,2-b]pyridin-7-yl)-6-(3-fluoropyrrolidin-1-yl)nicotinamide]	≤ 5 nM	≤ 5 nM	> 1000 nM
≤ 5 nM	N#Cc1cnc(-n2cc3c(n2)-c2cc(-c4cc(C(=O)Nc5ccc(OC(F)(F)Cl)cc5)cnc4N4CC[C@@H](F)C4)cnc2C3)nc1 [T-128, (R)-N-(4-(chlorodifluoromethoxy)phenyl)-5-(2-(5-cyanopyrimidin-2-yl)-2,4-dihydropyrazolo[3',4':3,4]cyclopenta[1,2-b]pyridin-7-yl)-6-(3-fluoropyrrolidin-1-yl)nicotinamide]	≤ 5 nM	≤ 5 nM	> 1000 nM
